Test results reported in patent US11141450B2, “Compositions for reducing appetite and craving, increasing satiety, enhancing mood, and reducing stress” (NEKTIUM PHARMA, S.L., priority 2017, dated 2021).

Columns and labels:
Fisher 344 rats [1] = experiment: EEG signals by telemetry from implanted electrodes in freely moving rats, Example 1; format: in vivo; conditions: first hour; all brain areas; p<0.01 relative to pre-drug baseline for the reference drugs; Rimonabant 5 mg/kg, Methylphenidate 1.0 mg/kg, Selegiline 1.5 mg/kg; FIG. 1
Source text: Fisher 344 rats (11 months of age and day-night converted, weight about 350-400 g, provided by Charles River Laboratories, D-97633, Sulzfeld) were used in a series of experiments on the effects of various herbal and pharmaceutical products on central nervous system activity. Products were provided to the test subjects orally (gavage).
The substances tested in this study included: • A control vehicle (0.9% NaCl); • Cyperus esculentus tuberous rhizome, ethanol extract, administered in an amount of 200 mg/kg to 7 rats; • Mango leaf, ethanol extract, administered in an amount of 50 mg/kg to 7 rats; • Cyperus Esculentus tuberous rhizome peel, ethanol extract, 150 mg/kg, plus Mango leaf extract, containing 60% of Mangiferin, 50 mg/kg, administered to 5 rats • Selegiline, administered in amount of 1.5 mg/kg to 8 rats • Methylphenidate administered in an amount of 1.0 mg/kg to 8 rats • Rimonabant administered in amount of 5 mg/kg to 6 rats
EEG signals were recorded by telemetry from 4 implanted electrodes in the frontal cortex, hippocampus and striatum of freely moving rats from inside a totally copper shielded room. Signals were collected in sweeps of 4-second duration and Fast Fourier transformed using a Hanning window. EEG signals were recorded over a period starting 5 minutes after administration of the test substances, and ending 65 minutes after administration of the test substances. Sampling frequency was 512 Hz. […] In an off-line procedure, the spectra were averaged to give longer periods for further analysis and data presentation. Spectral activity within the frontal cortex, hippocampus, striatum and reticular formation was recorded.

Fisher 344 rats [2] = experiment: EEG signals by telemetry from implanted electrodes in freely moving rats, first hour and fifth hour, Example 2; format: in vivo; conditions: first hour after administration and 5 hours after administration
Method: Products were provided to the test subjects orally (gavage).
EEG signals were recorded by telemetry from 4 implanted electrodes in the frontal cortex, hippocampus and striatum of freely moving rats from inside a totally copper shielded room.

Structure (SMILES) | effect on alpha-2 waves (Fisher 344 rats [1]) | impact on alpha-1 brain wave activity in the hippocampus (Fisher 344 rats [2])
COC(=O)C(c1ccccc1)C1CCCCN1 (stereo not shown) [Methylphenidate] | main significant effect | –
Cc1c(C(=O)NN2CCCCC2)nn(-c2ccc(Cl)cc2Cl)c1-c1ccc(Cl)cc1 [Rimonabant] | main significant effect | –
C#CCN(C)[C@H](C)Cc1ccccc1 [Selegiline] | main significant effect | –
O=c1c2cc(O)c(O)cc2oc2cc(O)c([C@@H]3O[C@H](CO)[C@@H](O)[C@H](O)[C@H]3O)c(O)c12 [pure Mangiferin, Mangiferin] | – | Neither Tigernut extract nor Mango leaf extract (60% Mangiferin) or pure Mangiferin administered alone showed a significant decrease of alpha-1 brain wave activity
